This note sets out measurements from ChEMBL document CHEMBL3988442, “University of Dundee, Small-Polar-MMV Screening Library” (2021).

Test [1] can be described thus: microbe, parasite or virus in culture. The following applies: Mycobacterium tuberculosis, 96 h, read-out: pIC50 (converted).
Test [2] can be described thus: microbe, parasite or virus in culture. The following applies: Mycobacterium tuberculosis, 72 h, read-out: pIC50 (converted).

`C=C(C)CSc1nnc(CCNC(=O)OC(C)(C)C)o1`: the IC50 is 5.84 µM in test [1] and 40.4 µM in test [2].
For the compound `CCSc1nc2ccccc2c(=O)n1OCC(=O)OC`, the figures for the IC50 in test [1] and in test [2] were > 50.1 µM and 24.9 µM, respectively.
Turning to `COC(=O)COn1c(SC(C)C)nc2ccccc2c1=O`, the IC50 in test [1] was > 50.1 µM; in test [2], 43.2 µM.
In the case of `Cc1cc(=O)[nH]c(-n2nc(-c3ccccc3)cc2N)n1`, the IC50 was > 50.1 µM in test [1] and 43.5 µM in test [2].
As to `Clc1ccc(-c2nnc([C@H]3CCN(C4CCCCC4)C3)o2)cc1`, the IC50 in test [1] was 24.2 µM; in test [2] it was 7.04 µM.
In the case of `CN1CCOC[C@H]1c1nc(-c2cccnc2)c[nH]1`, the IC50 in test [1] and in test [2] was > 50.1 µM throughout.
Take `Cc1ccc2c(c1)nc1n2[C@@H](CNC(=O)c2cccnc2)COC1`: the IC50 in test [1] and in test [2] was > 50.1 µM throughout.
For `COc1ccc(CN2CCOC[C@H](OCCC(C)C)C2)cc1`, the IC50 in test [1] and in test [2] was > 50.1 µM throughout.
Take `FC(F)(F)c1ccccc1CN1CCOC[C@H](Oc2cccnc2)C1`: the IC50 is 18.7 µM in test [1] and 48 µM in test [2].
`COc1ccc(CN2C[C@H]3CN(C(=O)c4ccno4)CCN3C2=O)cc1`: the IC50 in test [1] and in test [2] was > 50.1 µM in each case.
On to `O=C(c1ccno1)N1CCOC[C@H](Oc2ccc(C(F)(F)F)cc2)C1`, for which the IC50 in test [1] and in test [2] was > 50.1 µM each time.
Regarding `CS(=O)(=O)NC[C@H]1Cn2c(-c3ccc(Cl)cc3)cnc2CO1`, the IC50 in test [1] and in test [2] was > 50.1 µM in each case.
On to `CN(C)[C@H]1C[C@@H](Cc2cc(-c3ccc(F)cc3)on2)C1(C)C`, for which the IC50 in test [1] and in test [2] was > 50.1 µM throughout.
`Cc1ccc(CN2CC[C@H](c3nnc(COc4ccc(F)cc4)o3)C2)o1`: the IC50 in test [1] is 37.2 µM; in test [2], > 50.1 µM.
Take `FC(F)(F)c1ccc2nc([C@H]3CCN(C4CCCCC4)C3)[nH]c2c1`: the IC50 in test [1] is 24.9 µM; in test [2], 27.5 µM.
On the same counts, the results for `CCn1nnc(NCc2ccccc2OCc2ccc(Cl)cc2)n1` are 0.308 µM and > 50.1 µM.
Regarding `CCCc1nc2c(c(C)c(C)n2Cc2ccncc2)c(N)c1CC`, the IC50 in test [1] and in test [2] was > 50.1 µM each time.
In the case of `O=C(NCCc1c[nH]c2ccccc12)C1(n2cnnn2)CCCCC1`, the results for the IC50 in test [1] and in test [2] were > 50.1 µM and 47.6 µM, respectively.
With `Cc1cnc(NC(=O)c2csc(NC3CCCC3)n2)s1`, the IC50 in test [1] and in test [2] was > 50.1 µM throughout.
Turning to `O=C(Nc1ccccn1)c1csc(NC2CCCC2)n1`, the IC50 in test [1] was 26.1 µM; in test [2], 46.7 µM.
As for `Cn1cc(NC(=O)CNC(=O)N2CCN(c3ccccc3)CC2)cn1`, the IC50 in test [1] and in test [2] was > 50.1 µM in each case.
In the case of `O=C(NCC(=O)N1CCc2ccccc2C1)c1cnccn1`, the IC50 in test [1] and in test [2] was > 50.1 µM each time.
As for `COC(=O)CNC(=O)c1nc(Br)sc1C(C)C`, the IC50 in test [1] and in test [2] was > 50.1 µM in each case.
On to `CCOc1nn(CC)cc1-c1nnc(SCc2ccccn2)n1C`, for which the IC50 in test [1] was > 50.1 µM; in test [2], 25.4 µM.
On the same counts, the results for `CC1CCCN(C(=O)c2nnn(-c3ccc(C(F)(F)F)cc3)n2)C1` (configuration not stated) are 43.9 µM and 18.3 µM.
On the same counts, the results for `CN(C)C(=O)c1nnn(-c2ccc(Br)cc2)n1` are 14.2 µM and 12.6 µM.
With `O=C(c1cc(C2CC2)on1)N1CCC(Oc2ncccc2Cl)CC1`, the IC50 in test [1] was 24.9 µM; in test [2], 48.7 µM.
With `O=C(CCC(=O)N1CCC(Oc2ncccc2Br)CC1)c1ccccc1`, the IC50 is 45.4 µM in test [1] and 34.6 µM in test [2].
Consider `O=C(c1cc(C2CC2)on1)N1CCC(Oc2ncccc2Br)CC1`, for which the IC50 was 24.2 µM in test [1] and > 50.1 µM in test [2].
Regarding `O=S(=O)(NCCNc1ccc(-n2cccc2)nn1)c1ccccc1`, the IC50 in test [1] was 16.5 µM; in test [2], 15.5 µM.
As to `O=S(=O)(NCCNc1ccc(-n2cccc2)nn1)c1cccs1`, the IC50 is 13.4 µM in test [1] and 14 µM in test [2].
Regarding `COc1cc(C(=O)NCCCc2ccccc2)on1`, the IC50 in test [1] and in test [2] was > 50.1 µM throughout.
As for `COc1cc(C(=O)NCCc2ccc(Cl)cc2)on1`, the IC50 in test [1] is > 50.1 µM; in test [2], 4.56 µM.
In the case of `COCCN(Cc1ccoc1)S(=O)(=O)c1ccc(F)c(Cl)c1`, the IC50 in test [1] and in test [2] was > 50.1 µM each time.
For `COC1(CNC(=O)c2cccc(C#N)c2)CCSC1` (configuration not stated), the IC50 in test [1] and in test [2] was > 50.1 µM in each case.
On to `Cc1nsc(C(=O)NCCc2ccccc2)n1`, for which the IC50 was 20.9 µM in test [1] and 15.5 µM in test [2].
Consider `Cc1nsc(C(=O)NCCCc2ccccc2)n1`, for which the IC50 was 47.1 µM in test [1] and > 50.1 µM in test [2].
In the case of `Cc1nsc(C(=O)NCCc2ccc(Cl)cc2)n1`, the IC50 in test [1] is 12.7 µM; in test [2], 19.4 µM.
For `Cc1nsc(C(=O)NCCc2ccc(F)cc2)n1`, the figures for the IC50 in test [1] and in test [2] were 12.5 µM and 1.84 µM, respectively.
In the case of `Cc1nsc(C(=O)NCCc2cccs2)n1`, the IC50 is 32.7 µM in test [1] and 13.5 µM in test [2].
Regarding `COc1ccc(CC(=O)Nc2c(C)nc(N3CCCC3)nc2C)cc1`, the IC50 in test [1] and in test [2] was > 50.1 µM each time.
`O=C(Cc1cccs1)Nc1cnn(C2CCOC2)c1` (configuration not stated): the IC50 in test [1] and in test [2] was > 50.1 µM in each case.
Regarding `CC(=O)NCC(=O)N1CCc2nc(-c3ccccc3)nc(C)c2CC1`, the IC50 in test [1] and in test [2] was > 50.1 µM in each case.
Regarding `Cc1nc(NC(C)C)nc2c1CN(Cc1cccs1)CC2`, the results for the IC50 in test [1] and in test [2] were 27 µM and > 50.1 µM, respectively.
For the compound `CC(=O)NCc1noc2c1CN(Cc1ccsc1)CC2`, the IC50 in test [1] and in test [2] was > 50.1 µM each time.
On to `Cn1c2c(c(=O)n1C)CN(C(=O)c1ccco1)CCC2`, for which the IC50 in test [1] and in test [2] was > 50.1 µM each time.
In the case of `CC(C)n1cnc(C2CN(C)c3ccc(C(=O)NCC4CC4)cc32)n1` (configuration not stated), the IC50 in test [1] and in test [2] was > 50.1 µM each time.
`CC(C)CNC(=O)c1cc2c(s1)CCN2Cc1cccnc1`: the IC50 in test [1] and in test [2] was > 50.1 µM each time.
Regarding `O=C(NC1CC1)c1nc2c(s1)CCCN2c1ccccc1`, the IC50 in test [1] is 14.2 µM; in test [2] it was > 50.1 µM.
In the case of `Cc1nc(CNCC2COCc3c(-c4ccoc4)nnn3C2)cs1` (configuration not stated), the IC50 in test [1] and in test [2] was > 50.1 µM throughout.
For the compound `Fc1cnc(N2CCOCC3(CCCN(c4cnccn4)C3)C2)nc1` (configuration not stated), the IC50 in test [1] and in test [2] was > 50.1 µM throughout.
Consider `O=C1CC2(CCN(Cc3cccs3)C2)CN1c1cccc(F)c1` (configuration not stated), for which the figures for the IC50 in test [1] and in test [2] were 18.6 µM and 1.43 µM, respectively.
On to `O=C(CC1CC1)N[C@@H]1CN(Cc2ccoc2)C[C@@H]2CCCO[C@@H]21`, for which the IC50 in test [1] and in test [2] was > 50.1 µM in each case.
With `Cc1cc(C(=O)NCC2Cn3nnc(C)c3CO2)no1` (configuration not stated), the IC50 in test [1] and in test [2] was > 50.1 µM throughout.
Consider `CCN1C(=O)C2(CCOCC2)c2cc(NC(=O)c3cnoc3C)ccc21`, for which the IC50 in test [1] and in test [2] was > 50.1 µM in each case.
On to `Cc1cc(C)c(C#N)c(N2CCC(Cc3ccccc3)CC2)n1`, for which the IC50 in test [1] and in test [2] was > 50.1 µM each time.
With `CCSC1=Nc2c(cnn2-c2ccc(Cl)cc2)C2=NCCCN12`, the IC50 in test [1] is 17.1 µM; in test [2], 12.8 µM.
On the same counts, the results for `CSC1=Nc2c(cnn2-c2cccc(Cl)c2)C2=NCCCN12` are 28.3 µM and 5.78 µM.
Consider `CSC1=Nc2c(cnn2-c2ccc(C)cc2)C2=NCCCN12`, for which the IC50 in test [1] is > 50.1 µM; in test [2], 0.957 µM.
On to `O=S(=O)(Cc1ccc(Br)cc1)NCCO`, for which the IC50 in test [1] and in test [2] was > 50.1 µM throughout.
Take `CCCC(=O)N(CCCN1CCOCC1)c1nc2c(C)ccc(Cl)c2s1`: the IC50 was 19.2 µM in test [1] and 12.8 µM in test [2].
On the same counts, the results for `CCCC(=O)N(CCCN1CCOCC1)c1nc2c(C)c(C)ccc2s1` are > 50.1 µM and > 50.1 µM.
On to `CCC(CO)NCc1ccc(-c2ccc(Br)cc2)o1` (configuration not stated), for which the IC50 in test [1] is 27.5 µM; in test [2], 44.3 µM.
Consider `CCC(CO)NCc1ccc(-c2ccc(F)c(Cl)c2)o1` (configuration not stated), for which the IC50 was 13.2 µM in test [1] and 35.4 µM in test [2].
As to `COCCN1C[C@@H]2CN(c3cc(OC)ncn3)CCC[C@]2(C(=O)O)C1`, the IC50 in test [1] and in test [2] was > 50.1 µM throughout.
Turning to `Cc1ccc(CN2CCOC3(CCN(C(=O)C4CC=CC4)CC3)C2)cc1`, the IC50 in test [1] is 40.9 µM; in test [2], 30.5 µM.
As for `O=C1COC2(CCN(c3ccccn3)CC2)CN1`, the IC50 in test [1] and in test [2] was > 50.1 µM in each case.
On to `Cc1nc(N2CCCC2)nc2c1CCN(Cc1ccsc1)CC2`, for which the IC50 is 1.59 µM in test [1] and 0.893 µM in test [2].
On the same counts, the results for `Cc1nc(N2CCCC2)nc2c1CCN(Cc1ccoc1)CC2` are 14.7 µM and 22.8 µM.
In the same order, the values of `Cc1ccc(CN2CCC3(CC(=O)N(c4cccc(F)c4)C3)C2)o1` (configuration not stated) are > 50.1 µM and 20.3 µM.
As to `Cc1nnc(N2CC[C@@H](OCC3CC3)[C@@H](Cc3ccccc3)C2)s1`, the IC50 is > 50.1 µM in test [1] and 38.3 µM in test [2].
For the compound `O=C(c1ccc(F)cc1)N1C[C@H]2CCC[C@@]2(COCc2ccncc2)C1`, the IC50 in test [1] and in test [2] was > 50.1 µM in each case.
`CC(C)N1[C@H](CN2CCCC2)C[C@@H]2CN(Cc3ccoc3)CC[C@@H]21`: the IC50 in test [1] and in test [2] was > 50.1 µM each time.
Consider `O=C(CN(C1=NCCCCC1)c1ccc(Cl)cc1)c1ccccc1`, for which the IC50 in test [1] was 22.8 µM; in test [2] it was 20.7 µM.
As for `O=C(CN(C1=NCCCC1)c1ccccc1)c1ccc(OC(F)F)cc1`, the IC50 is 24.6 µM in test [1] and 39.3 µM in test [2].
On the same counts, the results for `Nc1ncnc2[nH]c(N3CCCCC3)nc12` are > 50.1 µM and > 50.1 µM.
